# Target: PD-L1 (Homo sapiens (Human), UniProt Q9NZQ7)
# Experiment: PD-1/PD-L1 homogeneous time-resolved fluorescence (HTRF) binding assay
# Details: Cisbio PD1/PD-L1 binding assay kit
# Excerpt: PD-1/PD-L1 homogeneous time-resolved fluorescence (HTRF) detection technology was used to detect the binding ability of the compound to PD-L1.
# PD1/PD-L1 binding assay kit (Cisbio, Cat #63ADK000CPDEC) was used, which includes two proteins, Tag 1-PD-L1 and Tag 2-PD-1, and two antibodies, Anti-Tag1-Eu^3+ and Anti-Tag2-XL 665. Assay principle: Anti-tag1-Eu^3+ is the HTRF donor, and Anti-Tag2-XL 665 is the HTRF acceptor. When Tag 1-PD-L1 and Tag 2-PD-1 interact, the added HTRF donor and the acceptor are close to each other. After the donor receives the excitation energy, it transfers part of the energy to the acceptor, thus producing 665 nm emission signal. When the compound is added to block the PD1/PD-L1 interaction, only 620 nm emission light was detected. The inhibitory effect of the compound was determined by analyzing the ratio of 665 nm/620 nm. Tag 1-PD-L1 was diluted with Diluent buffer (cat #62DLBDDF) to a working concentration of 10 nM, Tag 2-PD-1 was diluted with Diluent buffer to a working concentration of 500 nM, and Anti-Tag1-Eu^3+ was diluted with detection buffer (cat #62DB1FDG) by 1:100, Anti-Tag2-XL 665 was diluted with detection buffer by 1:20, and the test compound was diluted with Diluent buffer to a final concentration of 2×. In a 384-well plate, 2 μL of compound was added to each well, and then 4 μL of Tag 1-PD-L1, 4 μL of Tag 2-PD-1 were added and incubated at room temperature for 15 minutes. 5 μL Anti-Tag1-Eu^3+ and 5 μL Anti-Tag2-XL 665 were added and incubated overnight at room temperature, and detected with BioTek Synergy™ Neo2 Multifunctional Microplate Reader to obtain the ratio of 665 nm/620 nm. The IC50 curve was fitted by GraphPad Prism 5.02.
# PD-L1, sequence (Q9NZQ7 19-238): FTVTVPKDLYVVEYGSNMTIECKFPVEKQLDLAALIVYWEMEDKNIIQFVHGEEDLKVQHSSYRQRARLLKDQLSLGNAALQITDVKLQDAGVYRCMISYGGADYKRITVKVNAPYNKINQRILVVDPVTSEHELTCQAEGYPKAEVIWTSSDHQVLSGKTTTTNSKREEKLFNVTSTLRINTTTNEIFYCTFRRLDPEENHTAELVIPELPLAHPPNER
row,SMILES,IC50 [µM]
1,"COc1nc(OCc2cccc(COc3ccc(CNCCNC(C)=O)c(OC)n3)n2)ccc1CNCCNC(C)=O [Compound 18, N,N-((((((pyridine-2,6-diyl-bis (methylene))bis (oxo))bis (2-methoxypyridine-6,3-diyl))bis (methylene))bis (azetanediyl))bis (ethane-2,1-diyl)) diacetamide]",> 1
2,"Cc1c(CO)cccc1-c1cccc(COc2cccc(CN)n2)c1C [Compound 7, (3′-(((6-(aminomethyl)pyridin-2-yl)oxo)methyl)-2,2′-dimethyl-[1,1′-biphenyl]-3-yl)methanol]",> 1
3,CC(=O)NCCNCC(=O)Nc1cnn(Cc2cccc(-c3cccc(Cn4cc(NC(=O)CNCCNC(C)=O)cn4)c3C)c2C)c1 [Compound 25],> 1
4,"COc1cc(OCc2cccc(-c3cccc(CO)c3C)c2C)cc(OC)c1CNCCNC(C)=O [Compound 10, N-(2-((4-((3′-(hydroxymethyl)-2,2′-dimethyl-[1,1′-biphenyl]-3-yl)methoxy)-2,6-dimethoxybenzyl)amino)ethyl) acetamide]",> 1
5,COc1nc(OCc2cccc(-c3cccc(COc4ccc(CN5CC[C@@H](NC(C)=O)C5)c(OC)n4)c3C)c2C)ccc1CN1CC[C@@H](NC(C)=O)C1 [Compound 52],0.01 to 0.1
6,"COc1nc(OCc2cccc(-c3cccc(COc4ccc(CN)c(OC)n4)c3C)c2C)ccc1CN [Compound 6, ((((2,2′-dimethyl-[1,1′-biphenyl)-3,3′-diyl)bis (methylene))bis (oxo))bis (2-methoxypyridine-6,3-diyl)) dimethylamine]",0.01 to 0.1
7,COC(=O)[C@@H]1C[C@H](O)CN1Cc1ccc(OCc2cccc(-c3cccc(COc4ccc(CN5C[C@@H](O)C[C@H]5C(=O)OC)c(OC)n4)c3Cl)c2Cl)nc1OC [Compound 48],0.1 to 1
8,COc1nc(OCc2cccc(-c3ccccc3)c2C)ccc1CN [Compound 23],0.1 to 1
9,COc1nc(OCc2cccc(-c3cccc(COc4ccc(CNC5CCOC5=O)c(OC)n4)c3C)c2C)ccc1CNC1CCOC1=O (centres unmarked) [Compound 64],0.01 to 0.1
10,COc1nc(OCc2cccc(-c3cccc(COc4ccc(CN5CCC(CC#N)CC5)c(OC)n4)c3C)c2C)ccc1CN1CCC(CC#N)CC1 [Compound 59],0.01 to 0.1
11,COc1nc(OCc2cccc(-c3cccc(COc4ccc(CNC5CNC(=O)C5)c(OC)n4)c3C)c2C)ccc1CNC1CNC(=O)C1 (centres unmarked) [Compound 55],0.01 to 0.1
12,COc1nc(OCc2cccc(-n3cnc(COc4ccc(CNCCNC(C)=O)c(OC)n4)c3C)c2C)ccc1CNCCNC(C)=O [Compound 38],> 1
13,COc1nc(OCc2cccc(-c3cccc(COc4ccc(CNCCC(N)=O)c(OC)n4)c3C)c2C)ccc1CNCCC(N)=O [Compound 22],0.01 to 0.1
14,COc1nc(OCc2cccc(-c3cccc(COc4ccc(CNCC(C)C(=O)O)c(OC)n4)c3C)c2C)ccc1CNCC(C)C(=O)O (centres unmarked) [Compound 33],0.01 to 0.1
15,COc1nc(OCc2cccc(-c3cccc(COc4ccc(CNCCNC(C)=O)c(OC)n4)c3C)c2)ccc1CNCCNC(C)=O [Compound 28],0.01 to 0.1
16,COc1nc(OCc2cccc(-c3cccc(COc4ccc(CN5CCCC(C(N)=O)C5)c(OC)n4)c3C)c2C)ccc1CN1CCCC(C(N)=O)C1 (centres unmarked) [Compound 53],0.1 to 1
17,"COc1nc(OCc2cccc(-c3cccc(CO)c3C)c2C)ccc1CNC(=O)C(F)(F)F [Compound 1, 2,2,2-trifluoro-N-((6-((3′-(hydroxymethyl)-2,2′-dimethyl-[1,1′-biphenyl]-3-yl)methoxy)-2-methoxypyridin-3-yl)methyl)acetamide]",> 1
18,"COc1nc(OCc2cccc(-c3cccc(CO)c3C)c2C)ccc1CCN [Compound 15, (3′-(((5-(2-aminoethyl)-6-methoxypyridin-2-yl)oxo)methyl)-2,2′-dimethyl-[1,1′-biphenyl]-3-yl) methanol]",0.1 to 1

# Results, then the compound that gave them:
row,IC50 [µM],SMILES
1,< 0.01,COc1nc(OCc2cccc(-c3cccc(COc4ccc(CN(CCO)CCO)c(OC)n4)c3Cl)c2Cl)ccc1CN(CCO)CCO [Compound 72]
2,< 0.01,COc1nc(OCc2cccc(-c3cccc(COc4ccc(CN5CCC5C(=O)O)c(OC)n4)c3C)c2C)ccc1CN1CCC1C(=O)O (centres unmarked) [Compound 35]
3,< 0.01,COc1nc(OCc2cccc(-c3cccc(COc4ccc(CN5CC(CC(N)=O)C5)c(OC)n4)c3Cl)c2Cl)ccc1CN1CC(CC(N)=O)C1 [Compound 76]
4,0.01 to 0.1,CC(=O)NCCNCc1cc2nc(OCc3cccc(-c4cccc(COc5ccc6[nH]c(CNCCNC(C)=O)cc6n5)c4C)c3C)ccc2[nH]1 [Compound 34]
5,< 0.01,COc1nc(OCc2cccc(-c3cccc(COc4ccc(CN5CCCC[C@H]5C(=O)O)c(OC)n4)c3C)c2C)ccc1CN1CCCC[C@H]1C(=O)O [Compound 26]
6,< 0.01,COc1nc(OCc2cccc(-c3cccc(COc4ccc(CN5C[C@@H](O)C[C@H]5C(=O)O)c(OC)n4)c3C#N)c2C)ccc1CN1C[C@@H](O)C[C@H]1C(=O)O [Compound 56]
7,< 0.01,COc1nc(OCc2cccc(-c3cccc(COc4ccc(CN5CC(O)(C(=O)O)C5)c(OC)n4)c3C)c2C)ccc1CN1CC(O)(C(=O)O)C1 [Compound 42]
8,< 0.01,COc1nc(OCc2cccc(-c3cccc(COc4ccc(CNC(CCO)C(=O)O)c(OC)n4)c3C)c2C)ccc1CNC(CCO)C(=O)O (centres unmarked) [Compound 67]
9,< 0.01,COc1nc(OCc2cccc(-c3cccc(COc4ccc(CN5CCC6(CCC(=O)N6)C5)c(OC)n4)c3C)c2C)ccc1CN1CCC2(CCC(=O)N2)C1 (centres unmarked) [Compound 60]
10,< 0.01,COc1nc(OCc2cccc(-c3cccc(COc4ccc(CN5CC[C@H](O)C5)c(OC)n4)c3Cl)c2Cl)ccc1CN1CC[C@H](O)C1 [Compound 62]
11,< 0.01,COc1nc(OCc2cccc(-c3cccc(COc4ccc(CN5C[C@@H](O)C[C@H]5C(=O)O)c(OC)n4)c3Cl)c2Cl)ccc1CN1C[C@@H](O)C[C@H]1C(=O)O [Compound 46]
12,< 0.01,COc1nc(OCc2cccc(-c3cccc(COc4ccc(CNC(C)(CO)CO)c(OC)n4)c3C)c2C)ccc1CNC(C)(CO)CO [Compound 50]
13,< 0.01,COc1nc(OCc2cccc(-c3cccc(COc4ccc(CN5CC(NC(C)=O)C5)c(OC)n4)c3Cl)c2Cl)ccc1CN1CC(NC(C)=O)C1 [Compound 74]
14,< 0.01,COc1nc(OCc2cccc(-c3cccc(COc4ccc(CNC5(C(=O)O)CC5)c(OC)n4)c3C)c2C)ccc1CNC1(C(=O)O)CC1 [Compound 37]
15,< 0.01,COc1nc(OCc2cccc(-c3cccc(COc4ccc(CNCCNC(C)=O)c(OC)n4)c3Cl)c2Cl)ccc1CNCCNC(C)=O [Compound 43]
16,< 0.01,CNC(=O)CNCc1ccc(OCc2cccc(-c3cccc(COc4ccc(CNCC(=O)NC)c(OC)n4)c3Cl)c2Cl)nc1OC [Compound 77]
17,< 0.01,COc1nc(OCc2cccc(-c3cccc(COc4ccc(CN[C@@H](CC(N)=O)C(=O)O)c(OC)n4)c3C)c2C)ccc1CN[C@@H](CC(N)=O)C(=O)O [Compound 49]
18,< 0.01,COc1nc(OCc2cccc(-c3cccc(COc4ccc(CN5C[C@H](O)[C@@H](O)C5)c(OC)n4)c3Cl)c2Cl)ccc1CN1C[C@H](O)[C@@H](O)C1 [Compound 71]
19,< 0.01,COc1nc(OCc2cccc(-c3cccc(COc4ccc(CNCc5nnn[nH]5)c(OC)n4)c3Cl)c2Cl)ccc1CNCc1nnn[nH]1 [Compound 75]
20,< 0.01,COc1nc(OCc2cccc(-c3cccc(COc4ccc(CNCCS(N)(=O)=O)c(OC)n4)c3Cl)c2Cl)ccc1CNCCS(N)(=O)=O [Compound 78]
